Results taken from ChEMBL document CHEMBL4265900, “Discovery of the bifunctional modulator of angiotensin II type 1 receptor (AT1R) and PPARγ derived from the AT1R antagonist, Fimasartan” (Bioorg Med Chem Lett, 2018).
Calls of active or inactive are those of the source. No cut-off for these calls is given here.

Legend:
[1] = target: T1, Type-1 angiotensin II receptor (Homo sapiens, UniProt P30556); assay: Antagonist activity at type-1 angiotensin 2 receptor (unknown origin) by calcium mobilizing assay; type: functional
T1 sequence (P30556 whole entry): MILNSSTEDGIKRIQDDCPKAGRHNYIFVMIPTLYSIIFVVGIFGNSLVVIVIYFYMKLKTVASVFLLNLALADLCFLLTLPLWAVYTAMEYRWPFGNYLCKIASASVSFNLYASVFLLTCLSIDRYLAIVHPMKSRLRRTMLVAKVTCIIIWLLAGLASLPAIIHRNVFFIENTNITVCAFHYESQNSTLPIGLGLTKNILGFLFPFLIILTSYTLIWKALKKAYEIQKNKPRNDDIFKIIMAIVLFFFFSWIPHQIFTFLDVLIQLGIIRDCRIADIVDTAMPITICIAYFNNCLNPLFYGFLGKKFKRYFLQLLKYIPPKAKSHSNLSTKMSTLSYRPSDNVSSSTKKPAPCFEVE

[2] = target: T2, Peroxisome proliferator-activated receptor gamma (Homo sapiens) (UniProt P37231); assay: Agonist activity at PPARgamma (unknown origin) at 1 uM relative to telmisartan
T2 sequence (whole entry): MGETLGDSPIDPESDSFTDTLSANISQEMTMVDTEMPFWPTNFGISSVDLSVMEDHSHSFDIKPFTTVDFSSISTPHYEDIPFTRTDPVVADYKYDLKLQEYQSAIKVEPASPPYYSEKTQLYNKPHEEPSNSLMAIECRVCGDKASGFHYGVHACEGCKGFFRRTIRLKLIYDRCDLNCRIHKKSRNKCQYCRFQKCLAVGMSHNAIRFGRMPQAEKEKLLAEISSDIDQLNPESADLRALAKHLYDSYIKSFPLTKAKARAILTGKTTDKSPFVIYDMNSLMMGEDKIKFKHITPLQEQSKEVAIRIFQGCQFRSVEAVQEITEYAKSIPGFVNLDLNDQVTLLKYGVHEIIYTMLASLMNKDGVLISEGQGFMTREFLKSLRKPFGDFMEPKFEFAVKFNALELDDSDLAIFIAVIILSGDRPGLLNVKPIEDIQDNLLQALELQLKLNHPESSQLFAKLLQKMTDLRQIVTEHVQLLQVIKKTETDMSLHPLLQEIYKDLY

[3] = target: T3, Type-1 angiotensin II receptor (Homo sapiens) (UniProt P30556); assay: Antagonist activity at type-1 angiotensin 2 receptor (unknown origin) at 20 nM by calcium mobilizing assay relative to fimasartan; type: functional
T3 sequence (whole entry): T1 sequence (P30556 whole entry)

Mus musculus [4] = assay: Toxicity in db/db mouse model assessed as suppression of weight gain at 20 mg/kg, po qd measured after 11 days; type: organism-based; conditions: in vivo, 264 h
Mus musculus [5] = assay: Antidiabetic activity in db/db mouse model assessed as suppression of blood glucose increase at 20 mg/kg qd, po administered for 13 days; type: functional, organism-based

Row | IC50 [1] | Activity [2] | inhibition [3] | Structure (SMILES) | Activity (Mus musculus [4]) | Activity (Mus musculus [5])
1 | 1.6 nM | 120% |  | CCCCc1nc(C)c(CC(=S)N(C)C)c(=O)n1Cc1ccc(-c2ccccc2-c2noc(=O)[nH]2)cc1 |  | 
2 |  |  | 9.5% | Cc1nc(C2CC2)n(Cc2ccc(-c3ccccc3-c3noc(=O)[nH]3)cc2)c(=O)c1CC(=S)N(C)C |  | 
3 | 0.7 nM | 105% |  | CCCCc1nc(C)c(CC(=S)N2CCCC2)c(=O)n1Cc1ccc(-c2ccccc2-c2noc(=O)[nH]2)cc1 |  | 
4 |  |  |  | CCc1ccc(CCOc2ccc(CC3SC(=O)NC3=O)cc2)nc1 (centres undefined) [PIOGLITAZONE] | Non-Toxic | Active
5 | 5.6 nM | 83% |  | CCCCc1nc(C)c(CC(=S)N2CCOCC2)c(=O)n1Cc1ccc(-c2ccccc2-c2noc(=O)[nH]2)cc1 |  | 
6 | 4.7 nM | 100% |  | CCCc1nc(C)c(CC(=S)N(C)C)c(=O)n1Cc1ccc(-c2ccccc2-c2noc(=O)[nH]2)cc1 |  | 
7 | 38 nM | 116% |  | CCCCc1nc(C)c(CC(=S)N2CCCCC2)c(=O)n1Cc1ccc(-c2ccccc2-c2noc(=O)[nH]2)cc1 |  | 
8 | 1.2 nM | 107% |  | CCCCc1nc(C)c(CC(=S)N2CCCC2C)c(=O)n1Cc1ccc(-c2ccccc2-c2noc(=O)[nH]2)cc1 (centres undefined) |  | 
9 |  | 140% | 80% | CCCCc1nc(C)c(CC(=S)N(C)C)c(=O)n1Cc1ccc(-c2ccccc2C(=O)O)cc1 |  | 
10 | 2 nM | 61% |  | CCCCc1nc(C)c(CC(=S)N(CC)CC)c(=O)n1Cc1ccc(-c2ccccc2-c2noc(=O)[nH]2)cc1 |  | 
